Source: ChEMBL document CHEMBL3885861, “Open TG-GATES”

Organism: Rattus norvegicus
Test: Open TG-GATES - Regimen: Single
Format: toxicity, organism-based, Sprague-Dawley
Parameters: regimen Single, gender Male, age 6 weeks
Details: in vivo, po, 5 mg/kg, route gavage, dose level Low; for APTT / Bas / Eos / Fbg / Hb / Ht / Lym / MCH / MCHC / MCV / Mono / Neu / PT / Plat / RBC / Ret / WBC: tissue Blood; for LIVER: tissue Liver; for A/G / ALP / ALT / AST / BUN / CRE / Ca / Cl / DBIL / GLC / IP / K / LDH / Na / PL / RALB / TBIL / TC / TG / TP / gamma-GTP: tissue Plasma

Compound `C=C(C)[C@H]1Cc2c(ccc3c2O[C@@H]2COc4cc(OC)c(OC)cc4[C@@H]2C3=O)O1` [ROTENONE] has a TERMINAL_BW (3 h) of 199.1 g, an APTT (3 h) of 15.7 s and a Bas (3 h) of 0%. The Eos (3 h) was 1%, the Fbg (3 h) was 223 mg/dL and the Hb (3 h) was 12.6 g/dL. It also gave a Ht (3 h) of 38.3%, a Lym (3 h) of 77.2% and an MCH (3 h) of 21.2 pg. The MCHC (3 h) was 33%, the MCV (3 h) was 64.3 fL and the Mono (3 h) was 7.2%. The Neu (3 h) was 14.6%, the PT (3 h) was 12.3 s and the Plat (3 h) was 119.4 x10_4/uL. It also gave an RBC (3 h) of 595.4 x10_4/ul, a Ret (3 h) of 8.6% and a WBC (3 h) of 104.4 x10_2/uL. It also gave an LIVER (3 h) of 9.3 g, an A/G (3 h) of 2.1 and an ALP (3 h) of 1388.6 IU/L. The ALT (3 h) was 39 IU/L, the AST (3 h) was 64.8 IU/L and the BUN (3 h) was 13.8 mg/dL. The CRE (3 h) was 0.4 mg/dL, the Ca (3 h) was 11.5 mg/dL and the Cl (3 h) was 103.8 meq/L. It also gave a DBIL (3 h) of 0.012 mg/dL, a GLC (3 h) of 189.2 mg/dL and an IP (3 h) of 8.4 mg/dL. For the same compound, the K (3 h) was 4.3 meq/L, the LDH (3 h) was 112.6 IU/L and the Na (3 h) was 140.6 meq/L. It also gave a PL (3 h) of 142.2 mg/dL, an RALB (3 h) of 3.7 g/dL and a TBIL (3 h) of 0.04 mg/dL. It also gave a TC (3 h) of 89.6 mg/dL, a TG (3 h) of 74.8 mg/dL and a TP (3 h) of 5.4 g/dL. It also gave a gamma-GTP (3 h) of 1 IU/L, a TERMINAL_BW (6 h) of 191.9 g and an APTT (6 h) of 17.5 s. For the same compound, the Bas (6 h) was 0%, the Eos (6 h) was 1% and the Fbg (6 h) was 227.6 mg/dL. For the same compound, the Hb (6 h) was 12.9 g/dL, the Ht (6 h) was 39.6% and the Lym (6 h) was 77.4%. For the same compound, the MCH (6 h) was 21 pg, the MCHC (6 h) was 32.8% and the MCV (6 h) was 64.1 fL. For the same compound, the Mono (6 h) was 4.2%, the Neu (6 h) was 17.8% and the PT (6 h) was 12.6 s. It also gave a Plat (6 h) of 127.8 x10_4/uL, an RBC (6 h) of 618.2 x10_4/ul and a Ret (6 h) of 8.4%. The WBC (6 h) was 86.8 x10_2/uL, the LIVER (6 h) was 8.4 g and the A/G (6 h) was 2.3. The ALP (6 h) was 1155.6 IU/L, the ALT (6 h) was 36.8 IU/L and the AST (6 h) was 67.6 IU/L. The BUN (6 h) was 10.6 mg/dL, the CRE (6 h) was 0.4 mg/dL and the Ca (6 h) was 11 mg/dL. It also gave a Cl (6 h) of 104.6 meq/L, a DBIL (6 h) of 0.01 mg/dL and a GLC (6 h) of 182.8 mg/dL. It also gave an IP (6 h) of 8.9 mg/dL, a K (6 h) of 4.3 meq/L and an LDH (6 h) of 86.6 IU/L. The Na (6 h) was 140 meq/L, the PL (6 h) was 133.4 mg/dL and the RALB (6 h) was 3.7 g/dL. The TBIL (6 h) was 0.046 mg/dL, the TC (6 h) was 82.2 mg/dL and the TG (6 h) was 48.6 mg/dL. It also gave a TP (6 h) of 5.4 g/dL, a gamma-GTP (6 h) of 1 IU/L and a TERMINAL_BW (9 h) of 190.6 g. For the same compound, the APTT (9 h) was 16.3 s, the Bas (9 h) was 0% and the Eos (9 h) was 1%. It also gave a Fbg (9 h) of 218.6 mg/dL, a Hb (9 h) of 12.9 g/dL and a Ht (9 h) of 39.5%. The Lym (9 h) was 66.8%, the MCH (9 h) was 21.2 pg and the MCHC (9 h) was 32.6%. The MCV (9 h) was 65.1 fL, the Mono (9 h) was 10.6% and the Neu (9 h) was 22.2%. It also gave a PT (9 h) of 12.3 s, a Plat (9 h) of 123.8 x10_4/uL and an RBC (9 h) of 606.2 x10_4/ul. For the same compound, the Ret (9 h) was 8.4%, the WBC (9 h) was 86.2 x10_2/uL and the LIVER (9 h) was 8.1 g. It also gave an A/G (9 h) of 2.4, an ALP (9 h) of 1273.6 IU/L and an ALT (9 h) of 29.2 IU/L. For the same compound, the AST (9 h) was 63 IU/L, the BUN (9 h) was 10.2 mg/dL and the CRE (9 h) was 0.3 mg/dL. It also gave a Ca (9 h) of 11.1 mg/dL, a Cl (9 h) of 104.6 meq/L and a DBIL (9 h) of 0.008 mg/dL. The GLC (9 h) was 183.4 mg/dL, the IP (9 h) was 10.2 mg/dL and the K (9 h) was 4.2 meq/L. It also gave an LDH (9 h) of 102.8 IU/L, a Na (9 h) of 139.4 meq/L and a PL (9 h) of 129.6 mg/dL. The RALB (9 h) was 3.8 g/dL, the TBIL (9 h) was 0.044 mg/dL and the TC (9 h) was 78 mg/dL. The TG (9 h) was 42.4 mg/dL, the TP (9 h) was 5.4 g/dL and the gamma-GTP (9 h) was 1 IU/L. For the same compound, the TERMINAL_BW (24 h) was 213.3 g, the APTT (24 h) was 15.6 s and the Bas (24 h) was 0%. For the same compound, the Eos (24 h) was 1%, the Fbg (24 h) was 208.6 mg/dL and the Hb (24 h) was 12.8 g/dL. For the same compound, the Ht (24 h) was 39%, the Lym (24 h) was 69% and the MCH (24 h) was 21.2 pg. The MCHC (24 h) was 32.8%, the MCV (24 h) was 64.7 fL and the Mono (24 h) was 10%. The Neu (24 h) was 19.8%, the PT (24 h) was 12 s and the Plat (24 h) was 123.2 x10_4/uL. It also gave an RBC (24 h) of 602.8 x10_4/ul, a Ret (24 h) of 8.5% and a WBC (24 h) of 98.2 x10_2/uL. The LIVER (24 h) was 10.5 g, the A/G (24 h) was 2.4 and the ALP (24 h) was 1417.6 IU/L. For the same compound, the ALT (24 h) was 40.4 IU/L, the AST (24 h) was 71 IU/L and the BUN (24 h) was 15.6 mg/dL. It also gave a CRE (24 h) of 0.4 mg/dL, a Ca (24 h) of 11.5 mg/dL and a Cl (24 h) of 103.2 meq/L. For the same compound, the DBIL (24 h) was 0.014 mg/dL, the GLC (24 h) was 187.2 mg/dL and the IP (24 h) was 7.7 mg/dL. The K (24 h) was 4.6 meq/L, the LDH (24 h) was 106.6 IU/L and the Na (24 h) was 139.4 meq/L. The PL (24 h) was 158.8 mg/dL, the RALB (24 h) was 3.9 g/dL and the TBIL (24 h) was 0.034 mg/dL. For the same compound, the TC (24 h) was 86.2 mg/dL, the TG (24 h) was 146.8 mg/dL and the TP (24 h) was 5.6 g/dL. It also gave a gamma-GTP (24 h) of 0.6 IU/L.
